Measurements from patent US20220313698A1, “MODULATORS OF CYSTIC FIBROSIS TRANSMEMBRANE CONDUCTANCE REGULATOR” (Vertex Pharmaceuticals Incorporated, priority 2019, published 2022).
pEC50: −log10 of the molar value.

Target: CFTR-mediated chloride transport (Homo sapiens, UniProt P13569)
Test: Corrector Assay A - membrane potential dye assay (enteroid cells)
Conditions: for Corrector Assay A % activity: % of chloride transport of triple combination control (1 μM (14S)-dispiro macrocycle + 3 μM tezacaftor + 300 nM ivacaftor); for pEC50: read-out: Corrector Assay A EC50, human intestinal enteroid cells, 18-24 h incubation, acute 10 μM forskolin + 300 nM ivacaftor

SMILES	Corrector Assay A % activity	pEC50
CN(C)Cc1ccc(C2CC[C@@H]3CN(c4nc(C(C)(C)C)ccc4C(=O)NS(=O)(=O)c4cccc(n4)N2)C(C)(C)C3)nc1 (some centres unmarked) [Compound 103]	++ (++ is 30-60%)	> 6.00
CC(C)(C)c1ccc2c(n1)N1C[C@@H](CC[C@H](c3cccc(CCN)n3)Nc3cccc(n3)S(=O)(=O)NC2=O)CC1(C)C [Compound 104]	++ (++ is 30-60%)	> 6.00
CC(C)(C)CCc1ccc2c(n1)N1C[C@@H](CC[C@H](c3ccccn3)Nc3cccc(n3)S(=O)(=O)NC2=O)CC1(C)C [Compound 105, (14S,17R)-8-(3,3-dimethylbutyl)-12,12-dimethyl-17-(pyridin-2-yl)-2λ^6-thia-3,9,11,18,23-pentaazatetracyclo[17.3.1.111,14.05,10]tetracosa-1(22),5,7,9,19(23),20-hexaene-2,2,4-trione]	+++ (+++ is >60%)	> 6.00
CC(C)(C)/C=C/c1ccc2c(n1)N1C[C@@H](CC[C@H](c3ccccn3)Nc3cccc(n3)S(=O)(=O)NC2=O)CC1(C)C [Compound 106, (14S,17R)-8-[(1E)-3,3-dimethylbut-1-en-1-yl]-12,12-dimethyl-17-(pyridin-2-yl)-2λ^6-thia-3,9,11,18,23-pentaazatetracyclo[17.3.1.111,14.05,10]tetracosa-1(22),5,7,9,19(23),20-hexaene-2,2,4-trione]	+++ (+++ is >60%)	> 6.00
COCCc1ccc(C2CC[C@@H]3CN(c4nc(C(C)(C)C)ccc4C(=O)NS(=O)(=O)c4cccc(n4)N2)C(C)(C)C3)nc1 (some centres unmarked) [Compound 111]	++ (++ is 30-60%)	> 6.00
COCCc1ccc(C2CC[C@@H]3CN(c4nc(C(C)(C)C)ccc4C(=O)NS(=O)(=O)c4cccc(n4)N2)C(C)(C)C3)nc1 (some centres unmarked) [Compound 112]	++ (++ is 30-60%)	> 6.00
CC(C)(C)c1ccc2c(n1)N1C[C@@H](CCC(c3ccc(CCN)cn3)Nc3cccc(n3)S(=O)(=O)NC2=O)CC1(C)C (some centres unmarked) [Compound 113]	++ (++ is 30-60%)	> 6.00
CC(C)(C)c1ccc2c(n1)N1C[C@@H](CCC(c3ccc(CCN)cn3)Nc3cccc(n3)S(=O)(=O)NC2=O)CC1(C)C (some centres unmarked) [Compound 114]	++ (++ is 30-60%)	> 6.00
CC(C)(C)OC(=O)N1CCC(c2ccnc(C3CC[C@@H]4CN(c5nc(C(C)(C)C)ccc5C(=O)NS(=O)(=O)c5cccc(n5)N3)C(C)(C)C4)c2)CC1 (stereo partly drawn) [Compound 117, tert-butyl 4-{2-[(14S)-8-tert-butyl-12,12-dimethyl-2,2,4-trioxo-2λ^6-thia-3,9,11,18,23-pentaazatetracyclo[17.3.1.111,14.05,10]tetracosa-1(23),5(10),6,8,19,21-hexaen-17-yl]pyridin-4-yl}piperidine-1-carboxylate]	+++ (+++ is >60%)	> 6.00
CC(C)(C)OC(=O)N1CCC(c2ccnc(C3CC[C@@H]4CN(c5nc(C(C)(C)C)ccc5C(=O)NS(=O)(=O)c5cccc(n5)N3)C(C)(C)C4)c2)CC1 (stereo partly drawn) [Compound 118, tert-butyl 4-{2-[(14S)-8-tert-butyl-12,12-dimethyl-2,2,4-trioxo-2λ^6-thia-3,9,11,18,23-pentaazatetracyclo[17.3.1.111,14.05,10]tetracosa-1(23),5(10),6,8,19,21-hexaen-17-yl]pyridin-4-yl}piperidine-1-carboxylate]	++ (++ is 30-60%)	> 6.00
CC(C)(C)c1ccc2c(n1)N1C[C@@H](CCC(c3cc(C4CCNCC4)ccn3)Nc3cccc(n3)S(=O)(=O)NC2=O)CC1(C)C (some centres unmarked) [Compound 123]	+++ (+++ is >60%)	> 6.00
CC(C)(C)c1ccc2c(n1)N1C[C@@H](CCC(c3cc(C4CCNCC4)ccn3)Nc3cccc(n3)S(=O)(=O)NC2=O)CC1(C)C (stereo partly drawn) [Compound 124, (14S)-8-tert-butyl-12,12-dimethyl-17-[4-(piperidin-4-yl)pyridin-2-yl]-2λ^6-thia-3,9,11,18,23-pentaazatetracyclo[17.3.1.111,14.05,10]tetracosa-1(23),5(10),6,8,19,21-hexaene-2,2,4-trione]	++ (++ is 30-60%)	> 6.00
CC(C)(C)c1ccc2c(n1)N1C[C@@H](CCC(c3ccc(-c4cc[nH]n4)cn3)Nc3cccc(n3)S(=O)(=O)NC2=O)CC1(C)C (some centres unmarked) [Compound 129]	+++ (+++ is >60%)	> 6.00
CC(C)(C)c1ccc2c(n1)N1C[C@@H](CCC(c3ccc(-c4cc[nH]n4)cn3)Nc3cccc(n3)S(=O)(=O)NC2=O)CC1(C)C (some centres unmarked) [Compound 130]	+++ (+++ is >60%)	> 6.00
CC(C)(C)c1ccc2c(n1)N1C[C@@H](CC[C@@H](c3cccc(C4CCNCC4)n3)Nc3cccc(n3)S(=O)(=O)NC2=O)CC1(C)C [Compound 131]	+ (+ is <30%)	< 5.52
CC(C)(C)c1ccc2c(n1)N1C[C@@H](CC[C@H](c3cccc(C4CCNCC4)n3)Nc3cccc(n3)S(=O)(=O)NC2=O)CC1(C)C [Compound 132, (14S,17R)-8-tert-Butyl-12,12-dimethyl-17-[6-(piperidin-4-yl)pyridin-2-yl]-2λ^6-thia-3,9,11,18,23-pentaazatetracyclo[17.3.1.111,14.05,10]tetracosa-1(23),5(10),6,8,19,21-hexaene-2,2,4-trione]	++ (++ is 30-60%)	> 6.00

SMILES	Corrector Assay A % activity	pEC50
CC(C)(C)c1ccc2c(n1)N1C[C@@H](CC[C@@H](c3cccc(CCCN)n3)Nc3cccc(n3)S(=O)(=O)NC2=O)CC1(C)C [Compound 133]	+ (+ is <30%)	> 6.00
CC(C)(C)c1ccc2c(n1)N1C[C@@H](CC[C@H](c3cccc(CCCN)n3)Nc3cccc(n3)S(=O)(=O)NC2=O)CC1(C)C [Compound 134, (14S,17R)-17-[6-(3-aminopropyl)pyridin-2-yl]-8-tert-butyl-12,12-dimethyl-2λ^6-thia-3,9,11,18,23-pentaazatetracyclo[17.3.1.111,14.05,10]tetracosa-1(23),5(10),6,8,19,21-hexaene-2,2,4-trione]	+++ (+++ is >60%)	> 6.00
CC(C)(C)c1ccc2c(n1)N1C[C@@H](CCC(c3ccc(-c4cn[nH]c4)cn3)Nc3cccc(n3)S(=O)(=O)NC2=O)CC1(C)C (some centres unmarked) [Compound 135]	++ (++ is 30-60%)	> 6.00
CC(C)(C)c1ccc2c(n1)N1C[C@@H](CCC(c3ccc(-c4cn[nH]c4)cn3)Nc3cccc(n3)S(=O)(=O)NC2=O)CC1(C)C (some centres unmarked) [Compound 136]	+++ (+++ is >60%)	> 6.00
CC(C)(C)c1ccc2c(n1)N1C[C@@H](CCC(c3ccc(CCCN)cn3)Nc3cccc(n3)S(=O)(=O)NC2=O)CC1(C)C (some centres unmarked) [Compound 137]	++ (++ is 30-60%)	> 6.00
CC(C)(C)c1ccc2c(n1)N1C[C@@H](CCC(c3ccc(CCCN)cn3)Nc3cccc(n3)S(=O)(=O)NC2=O)CC1(C)C (stereo partly drawn) [Compound 138, (14S)-17-[5-(3-aminopropyl)pyridin-2-yl]-8-tert-butyl-12,12-dimethyl-2λ^6-thia-3,9,11,18,23-pentaazatetracyclo[17.3.1.111,14.05,10]tetracosa-1(23),5(10),6,8,19,21-hexaene-2,2,4-trione]	++ (++ is 30-60%)	> 6.00
CC(C)(C)c1ccc2c(n1)N1C[C@@H](CC[C@@H](c3cccc(CCC#N)n3)Nc3cccc(n3)S(=O)(=O)NC2=O)CC1(C)C [Compound 139]	+ (+ is <30%)	< 5.52
CC(C)(C)c1ccc2c(n1)N1C[C@@H](CC[C@H](c3cccc(CCC#N)n3)Nc3cccc(n3)S(=O)(=O)NC2=O)CC1(C)C [Compound 140]	++ (++ is 30-60%)	> 6.00
CC(C)(C)c1ccc2c(n1)N1C[C@@H](CC[C@@H](c3cccc(C4=CCNCC4)n3)Nc3cccc(n3)S(=O)(=O)NC2=O)CC1(C)C [Compound 141]	++ (++ is 30-60%)	5.52 to 6.00
CC(C)(C)c1ccc2c(n1)N1C[C@@H](CC[C@H](c3cccc(C4=CCNCC4)n3)Nc3cccc(n3)S(=O)(=O)NC2=O)CC1(C)C [Compound 142, (14S,17R)-8-tert-Butyl-12,12-dimethyl-17-{1′,2′,3′,6′-tetrahydro-[2,4′-bipyridine]-6-yl}-2λ^6-thia-3,9,11,18,23-pentaazatetracyclo [17.3.1.111,14.05,10]tetracosa-1(23),5(10),6,8,19,21-hexaene-2,2,4-trione]	+++ (+++ is >60%)	> 6.00
CC(C)(C)c1ccc2c(n1)N1C[C@@H](CCC(c3ccc(CCC#N)cn3)Nc3cccc(n3)S(=O)(=O)NC2=O)CC1(C)C (stereo partly drawn) [Compound 146, 3-{6-[(14S)-8-tert-butyl-12,12-dimethyl-2,2,4-trioxo-2λ^6-thia-3,9,11,18,23-pentaazatetracyclo[17.3.1.111,14.05,10]tetracosa-1(23),5(10),6,8,19,21-hexaen-17-yl]pyridin-3-yl}propanenitrile]	+++ (+++ is >60%)	> 6.00
CC(C)(C)c1ccc2c(n1)N1C[C@@H](CC[C@@H](c3cccc(C4CCOCC4)n3)Nc3cccc(n3)S(=O)(=O)NC2=O)CC1(C)C [Compound 147]	+ (+ is <30%)	< 5.52
CC(C)(C)c1ccc2c(n1)N1C[C@@H](CC[C@H](c3cccc(C4CCOCC4)n3)Nc3cccc(n3)S(=O)(=O)NC2=O)CC1(C)C [Compound 148]	+++ (+++ is >60%)	> 6.00
CC(C)(C)c1ccc2c(n1)N1C[C@@H](CC[C@@H](c3cccc(C4=CCOCC4)n3)Nc3cccc(n3)S(=O)(=O)NC2=O)CC1(C)C [Compound 149]	+ (+ is <30%)	> 6.00
CC(C)(C)c1ccc2c(n1)N1C[C@@H](CC[C@H](c3cccc(C4=CCOCC4)n3)Nc3cccc(n3)S(=O)(=O)NC2=O)CC1(C)C [Compound 150]	+++ (+++ is >60%)	> 6.00
